Measured values as given in US5294611A, “Angiotensin II receptor blocking 2,3,6 substituted quinazolinones” (American Cyanamid Company, priority 1993, dated 1994).
Read-outs that look alike come from different tables or passages of the source.

Tested on: Angiotensin II (AII) vasopressor response
Test: AII Challenge: antagonism of angiotensin II vasopressor response in conscious spontaneously hypertensive rats
Format: in vivo, rat (male okamoto-Aoki SHR)
Conditions: for inhibition in vivo at 1 mg/kg / inhibition in vivo at 3 mg/kg / inhibition in vivo at 5 mg/kg: Rattus norvegicus; for inhibition in vivo at 1 mg/kg / inhibition in vivo at 3 mg/kg: iv; for inhibition in vivo at 1 mg/kg / inhibition in vivo at 3 mg/kg / inhibition in vivo at 5 mg/kg / Average Change: SHR n=2; for inhibition in vivo at 3 mg/kg / inhibition in vivo at 5 mg/kg: read-out: Inhibition; for inhibition in vivo at 5 mg/kg: po
How it was run: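 Conscious male SHR (16–20 weeks, ~330 g) cannulated under local procaine, blood pressure recorded via transducer. Angiotensin II (human) 0.05 and 0.1 ug/kg i.v. given before and after test compound dosed i.v., i.p. or orally; response measured as rise in systolic pressure (mmHg).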

Compound: CCCCc1nc2ccc([C@H]3[C@@H]4CCC[C@@H]4ON3C)cc2c(=O)n1Cc1ccc(-c2ccccc2-c2nnn[nH]2)cc1 (relative stereo) [Example 50]
- inhibition in vivo at 1 mg/kg (0.5 h, 1 mg/kg I.V., AII 0.05 mcg/kg IV, 30 min post dose): 17%
- inhibition in vivo at 1 mg/kg (0.5 h, 1 mg/kg I.V., AII 0.1 mcg/kg IV, 30 min post dose): 39%
- inhibition in vivo at 3 mg/kg (0.5 h, 3 mg/kg I.V., AII 0.05 mcg/kg IV, 30 min post dose): 64%
- inhibition in vivo at 3 mg/kg (0.5 h, 3 mg/kg I.V., AII 0.1 mcg/kg IV, 30 min post dose): 66%
- inhibition in vivo at 1 mg/kg (1 h, 1 mg/kg I.V., AII 0.05 mcg/kg IV, 60 min post dose): 17%
- inhibition in vivo at 1 mg/kg (1 h, 1 mg/kg I.V., AII 0.1 mcg/kg IV, 60 min post dose): 27%
- inhibition in vivo at 3 mg/kg (1 h, 3 mg/kg I.V., AII 0.05 mcg/kg IV, 60 min post dose): 70%
- inhibition in vivo at 3 mg/kg (1 h, 3 mg/kg I.V., AII 0.1 mcg/kg IV, 60 min post dose): 65%
- inhibition in vivo at 1 mg/kg (2 h, 1 mg/kg I.V., AII 0.05 mcg/kg IV, 120 min post dose): 17%
- inhibition in vivo at 1 mg/kg (2 h, 1 mg/kg I.V., AII 0.1 mcg/kg IV, 120 min post dose): 35%
- inhibition in vivo at 3 mg/kg (2 h, 3 mg/kg I.V., AII 0.05 mcg/kg IV, 120 min post dose): 66%
- inhibition in vivo at 3 mg/kg (2 h, 3 mg/kg I.V., AII 0.1 mcg/kg IV, 120 min post dose): 75%
- inhibition in vivo at 1 mg/kg (3 h, 1 mg/kg I.V., AII 0.05 mcg/kg IV, 180 min post dose): 25%
- inhibition in vivo at 1 mg/kg (3 h, 1 mg/kg I.V., AII 0.1 mcg/kg IV, 180 min post dose): 33%
- inhibition in vivo at 3 mg/kg (3 h, 3 mg/kg I.V., AII 0.05 mcg/kg IV, 180 min post dose): 59%
- inhibition in vivo at 3 mg/kg (3 h, 3 mg/kg I.V., AII 0.1 mcg/kg IV, 180 min post dose): 68%
- inhibition in vivo at 1 mg/kg (4 h, 1 mg/kg I.V., AII 0.05 mcg/kg IV, 240 min post dose): -8%
- inhibition in vivo at 1 mg/kg (4 h, 1 mg/kg I.V., AII 0.1 mcg/kg IV, 240 min post dose): -16%
- inhibition in vivo at 1 mg/kg (5 h, 1 mg/kg I.V., AII 0.05 mcg/kg IV, 300 min post dose): -25%
- inhibition in vivo at 1 mg/kg (5 h, 1 mg/kg I.V., AII 0.1 mcg/kg IV, 300 min post dose): -11%
- inhibition in vivo at 1 mg/kg (16.5 h, 1 mg/kg I.V., AII 0.05 mcg/kg IV, 990 min post dose (so in the source)): 20%
- inhibition in vivo at 1 mg/kg (16.5 h, 1 mg/kg I.V., AII 0.1 mcg/kg IV, 990 min post dose (so in the source)): 9%
- inhibition in vivo at 3 mg/kg ([…], 3 mg/kg I.V., AII 0.05 mcg/kg IV, 90 min post dose): 80%
- inhibition in vivo at 3 mg/kg ([…], 3 mg/kg I.V., AII 0.1 mcg/kg IV, 90 min post dose): 52%
- inhibition in vivo at 5 mg/kg (0.5 h, 5 mg/kg P.O., AII 0.05 mcg/kg IV, 30 min post dose): 47%
- inhibition in vivo at 5 mg/kg (0.5 h, 5 mg/kg P.O., AII 0.1 mcg/kg IV, 30 min post dose): 25%
- inhibition in vivo at 5 mg/kg (1 h, 5 mg/kg P.O., AII 0.05 mcg/kg IV, 60 min post dose): 47%
- inhibition in vivo at 5 mg/kg (1 h, 5 mg/kg P.O., AII 0.1 mcg/kg IV, 60 min post dose): 32%
- inhibition in vivo at 5 mg/kg (2 h, 5 mg/kg P.O., AII 0.05 mcg/kg IV, 120 min post dose): 68%
- inhibition in vivo at 5 mg/kg (3 h, 5 mg/kg P.O., AII 0.05 mcg/kg IV, 180 min post dose): 35%
- inhibition in vivo at 5 mg/kg (3 h, 5 mg/kg P.O., AII 0.1 mcg/kg IV, 180 min post dose): 18%
- inhibition in vivo at 5 mg/kg ([…], 5 mg/kg P.O., AII 0.05 mcg/kg IV, 90 min post dose): 53%
- inhibition in vivo at 5 mg/kg ([…], 5 mg/kg P.O., AII 0.1 mcg/kg IV, 90 min post dose): 52%
- Average Change (1 mg/kg I.V., AII 0.05 mcg/kg IV, 30 min post dose): 25 mmHg
- Average Change (1 mg/kg I.V., AII 0.05 mcg/kg IV, 60 min post dose): 25 mmHg
- Average Change (1 mg/kg I.V., AII 0.05 mcg/kg IV, 120 min post dose): 25 mmHg
- Average Change (1 mg/kg I.V., AII 0.05 mcg/kg IV, 180 min post dose): 22.5 mmHg
- Average Change (1 mg/kg I.V., AII 0.05 mcg/kg IV, 240 min post dose): 32.5 mmHg
- Average Change (1 mg/kg I.V., AII 0.05 mcg/kg IV, 300 min post dose): 37.5 mmHg
- Average Change (1 mg/kg I.V., AII 0.05 mcg/kg IV, 990 min post dose (so in the source)): 24 mmHg
- Average Change (1 mg/kg I.V., AII 0.1 mcg/kg IV, 30 min post dose): 25 mmHg
- Average Change (1 mg/kg I.V., AII 0.1 mcg/kg IV, 60 min post dose): 30 mmHg
- Average Change (1 mg/kg I.V., AII 0.1 mcg/kg IV, 120 min post dose): 26.5 mmHg
- Average Change (1 mg/kg I.V., AII 0.1 mcg/kg IV, 180 min post dose): 27.5 mmHg
- Average Change (1 mg/kg I.V., AII 0.1 mcg/kg IV, 240 min post dose): 47.5 mmHg
- Average Change (1 mg/kg I.V., AII 0.1 mcg/kg IV, 300 min post dose): 45.5 mmHg
- Average Change (1 mg/kg I.V., AII 0.1 mcg/kg IV, 990 min post dose (so in the source)): 37.5 mmHg
- Average Change (3 mg/kg I.V., AII 0.05 mcg/kg IV, 30 min post dose): 20 mmHg
- Average Change (3 mg/kg I.V., AII 0.05 mcg/kg IV, 60 min post dose): 16.5 mmHg
- Average Change (3 mg/kg I.V., AII 0.05 mcg/kg IV, 90 min post dose): 11 mmHg
- Average Change (3 mg/kg I.V., AII 0.05 mcg/kg IV, 120 min post dose): 18.5 mmHg
- Average Change (3 mg/kg I.V., AII 0.05 mcg/kg IV, 180 min post dose): 22.5 mmHg
- Average Change (3 mg/kg I.V., AII 0.1 mcg/kg IV, 30 min post dose): 18.5 mmHg
- Average Change (3 mg/kg I.V., AII 0.1 mcg/kg IV, 60 min post dose): 19 mmHg
- Average Change (3 mg/kg I.V., AII 0.1 mcg/kg IV, 90 min post dose): 26.5 mmHg
- Average Change (3 mg/kg I.V., AII 0.1 mcg/kg IV, 120 min post dose): 14 mmHg
- Average Change (3 mg/kg I.V., AII 0.1 mcg/kg IV, 180 min post dose): 17.5 mmHg
- Average Change (5 mg/kg P.O., AII 0.05 mcg/kg IV, 30 min post dose): 22.5 mmHg
- Average Change (5 mg/kg P.O., AII 0.05 mcg/kg IV, 60 min post dose): 22.5 mmHg
- Average Change (5 mg/kg P.O., AII 0.05 mcg/kg IV, 90 min post dose): 20 mmHg
- Average Change (5 mg/kg P.O., AII 0.05 mcg/kg IV, 120 min post dose): 13.5 mmHg
- Average Change (5 mg/kg P.O., AII 0.05 mcg/kg IV, 180 min post dose): 27.5 mmHg
- Average Change (5 mg/kg P.O., AII 0.1 mcg/kg IV, 30 min post dose): 32 mmHg
- Average Change (5 mg/kg P.O., AII 0.1 mcg/kg IV, 60 min post dose): 29 mmHg
- Average Change (5 mg/kg P.O., AII 0.1 mcg/kg IV, 90 min post dose): 20.5 mmHg
- Average Change (5 mg/kg P.O., AII 0.1 mcg/kg IV, 120 min post dose): 22.5 mmHg
- Average Change (5 mg/kg P.O., AII 0.1 mcg/kg IV, 180 min post dose): 35 mmHg
- Change (single SHR, 5 mg/kg P.O., AII 0.1 mcg/kg IV, 180 min post dose): 35 mmHg
